In patent US7718674B2, “Methods of relieving neuropathic pain with the S-isomer of 2-{2[N-(2-indanyl)-N-phenylamino]ethyl}piperidine” (Bridge Pharma, Inc., priority 2004, dated 2010):
“Also recorded” adds a separate entry of the source.

Experiments:
[1] = test system: skin on the back of male or female guinea pigs; conditions: from U.S. Pat. No. 6,413,987; cited from earlier work
[2] = from U.S. Pat. No. 6,413,987; cited from earlier work
[3] = test system: skin on the back of male or female guinea pigs; test: Dermal anesthetic activity, pin-prick method after dermal application; assay type: in vivo, guinea pig; conditions: for anesthetic score (dermal anesthetic effect, FIG. 1): after 30 min application, score = average number of six probings not producing a skin twitch, 10% solution of base in DMSO/water
Method: Approximately 18-24 hours before each experiment, the skin on the back of male or female guinea pigs was shaved and depilated with a commercially available hair remover. The anesthetic action of each agent following dermal application was determined using a “pin-prick” method as described by Aberg (Acta Pharmacol Toxicol, 1972, 31: 273-286). Before and at various intervals after treatment, the area of the skin was tested for the presence or absence of a skin twitch in response to six standardized dermal probings with a pointed metal “algesimeter” at a predetermined maximum load of 10 grams. The average number of probings not producing a skin twitch response was designated as the “anesthetic score”. In this test system no response to six stimuli represents a “maximal anesthetic activity”. In the present calculations, the dermal anesthetic activity was calculated from the time of removal of the test article formulation from the skin until skin twitch responses to all but one pinprick were identified. In experiments on the dermal anesthetic activity, a single area of skin 1 inch square was marked off on the middle of the back of each animal. This area was covered by a 1 inch square, 16 layer thick gauze pad onto which was deposited 0.45 ml of a 10% solution of the test agent dissolved in a mixture of water and DMSO. The gauze pad was covered with a 1.5 inch square sheet of Saran Wrap™ which was attached to the surrounding skin with tape. The entire area was then covered by wrapping an elastic bandage around the trunk of the animal. After a predetermined duration of treatment, the coverings were removed and the skin assessed for the presence of anesthesia as described above. Dermal anesthesia tests were performed at ten-minute intervals to measure onset time and duration of dermal anesthetic activity; comparisons were made with reference compounds and vehicle. All test compounds were in the base form and dissolved in DMSO/water when tested for dermal anesthesia.

Analgesic activity = test: Analgesic activity; set-up: species or system rats; conditions: rat, in vivo
Method: Peripheral mononeuropathy is induced in rats by loose ligation of the sciatic nerve in anesthetized rats. Fourteen days later, the nociceptive threshold is evaluated after animal dosing with drug or vehicle, using graded paw pressure testing to assess hyperalgesia.
Diabetes is induced in rats by intraperitoneal injection of streptozotocin. Three weeks later, the nociceptive threshold is measured after animal dosing using the paw pressure to assess hyperalgesia.

Dermal / tissue toxicity = conditions: in vivo

Structure (SMILES) | local / dermal anesthetic activity [1] | tissue toxicity [2] | anesthetic score (dermal anesthetic effect, FIG. 1) [3] | onset of dermal anesthetic activity ([3]; comparison of the enantiomers of LAC-34) | duration of action (duration of anesthesia) ([3]; comparison with racemate and other enantiomer, same concentration) | analgesic activity (Analgesic activity) | dermal toxicity (Dermal / tissue toxicity)
c1ccc(N(CCC2CCCCN2)C2Cc3ccccc3C2)cc1 (racemic) [RS-LAC-34, 2-{2-[N-(2-indanyl)-N-phenylamino]ethyl}piperidine] | active local anesthetic compound | little, if any, tissue toxicity | – | – | – | – | –
c1ccc(N(CC[C@H]2CCCCN2)C2Cc3ccccc3C2)cc1 [R-LAC-34] | – | – | 3.5 | significantly shorter; also recorded: shorter onset of action | shorter duration of action | – | –
c1ccc(N(CC[C@@H]2CCCCN2)C2Cc3ccccc3C2)cc1 [S-LAC-34, S-2-{2-[N-(2-indanyl)-N-phenylamino]ethyl}piperidine] | – | – | 2.6 | – | – | expresses analgesic activity | low dermal toxicity
